According to the METLIN SMRT retention time set (Domingo-Almenara et al. 2019):

Assay: gradient 5% acetonitrile 3 min, to 50% in 2 min, to 85% in 15 min, held 3 min, 100 µL/min
Conditions: column: Zorbax Extend-C18 2.1 x 50 mm; eluents: water / acetonitrile, 0.1% formic acid
How it was run: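 Mixtures of ~100 pure standards were chromatographed on a Zorbax Extend-C18 column (2.1 × 50 mm, 1.8 μm) at 100 μL/min using water and acetonitrile, each with 0.1% formic acid. Detection used a quadrupole time-of-flight mass spectrometer in positive and negative ionization mode, and data collection spanned 3 months. Retention time was obtained from adduct peaks picked computationally and each checked manually.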

| Compound | RP-LC retention time [s] |
| --- | --- |
| O=C(NCc1ccc2c(c1)OCO2)c1ccc2ncnc(N3CCOCC3)c2c1 | 605 |
| Cc1ccc(N2C(=O)c3ccc(C(=O)N4CCN(c5ccccc5F)CC4)cc3C2=O)cc1 | 982 |
| O=C(NC1CCCCCC1)c1nnc(-c2ccc(S(=O)(=O)N3CCCC3)cc2)o1 | 1010 |
| CCN1CCN(c2cc(C(=O)O)c3cc(NS(=O)(=O)c4cc(C)ccc4C)ccc3n2)CC1 | 610 |
| Cc1ccccc1CN1CCCN(c2ncccc2-c2nc(C3CC3)no2)CC1 | 711 |
| CC(C)n1cnc2cc(CNC(=O)Cc3cccc(C(F)(F)F)c3)ccc21 | 680 |
| CC(=O)N1CCCC1c1nc2ccccc2n1CC(=O)N1CCCCC1 (stereo not given) | 594 |
| CCC(=O)N1CCc2ccccc2C1C(=O)NCc1ccc2c(c1)OCO2 (stereo not given) | 761 |
| COC(=O)C1=C(C)N(C2CCCCC2)C(=O)C1(NC(=O)c1cccc(OC)c1)C(F)(F)F (stereo not given) | 1070 |
| Cc1ccc(Nc2nc(C)cc(N3CCN(S(=O)(=O)c4ccc(F)c(F)c4)CC3)n2)cc1 | 808 |
| COc1ccc(NC(=O)N2CCC(n3cnc4cc(F)ccc4c3=O)CC2)c(OC)c1 | 732 |
| CCS(=O)(=O)N1CCc2ccc(NC(=O)COc3ccc(Cl)cc3Cl)cc2C1 | 964 |
| CCOc1ccc(CNC(=O)C2CCCN(S(=O)(=O)c3ccc4c(ccn4CC)c3)C2)cc1 (stereo not given) | 1040 |
| COC(=O)c1ccc(NC(=O)CN2CCC(c3nc(-c4cccs4)no3)CC2)cc1 | 621 |
| Cn1cc2c3c(cccc31)CN(C(=O)c1cc(F)ccc1Cl)CC2 | 938 |
| CCOc1nccnc1N1CCC(N(C)C(=O)Cc2cccnc2)C1 (stereo not given) | 630 |
| CCCc1ccc(S(=O)(=O)N2CCN(c3cnn4c(C)nnc4c3)CC2)cc1 | 805 |
| O=C(NCCN1CCOCC1)C1=C2CCCN2c2ccc(F)cc2S1(=O)=O | 586 |

| Compound | RP-LC retention time [s] |
| --- | --- |
| Cc1nnc(CNC(=O)c2cc(-c3ccc(F)cc3)c[nH]2)o1 | 649 |
| Cc1cccc(CNC(=O)C2CCCN(c3ccc4cc(S(=O)(=O)N5CCCC5)ccc4n3)C2)c1 (stereo not given) | 774 |
| CCCNc1cc(N2CCCC(CCC(=O)NCc3cccc(F)c3)C2)ncn1 (stereo not given) | 696 |
| Cc1ccccc1Nc1c(-c2ccc(N3CCOCC3)cc2)nc2cnccn12 | 822 |
| O=c1n(Cc2cccc(F)c2)nc2c(S(=O)(=O)N3CCCC3)cccn12 | 1050 |
| CN(C)c1cccc(-c2nc(-c3cn(Cc4cccc(F)c4)nn3)no2)c1 | 677 |
| O=C(NCc1ccccc1)C1CCCN(S(=O)(=O)c2c[nH]c(C(=O)N3CCCCCC3)c2)C1 (stereo not given) | 826 |
| CC(C)(C)c1noc(-c2ccc(-n3cnc(C(=O)NC4CCCCC4)c3)nc2)n1 | 1040 |
| Cc1cccc(CN2CCN(C3CCN(C(=O)Nc4ccc5c(c4)OCO5)CC3)C2=O)c1 | 836 |
| COc1ccc(C(=O)N2CCC3(CC2)NC(=O)c2cc(Cl)ccc2N3C)cc1 | 768 |
| Cc1cc(=O)n(CC(=O)Nc2ccc(Cl)cc2)c(-c2ccccc2)n1 | 1080 |
| C=Cc1ccc(Cn2cc(S(=O)(=O)N3CCCC3)ccc2=O)cc1 | 886 |
| O=C(NCc1ccncc1)C1CCN(C(=O)c2ncn3c2COC(c2ccc(Cl)cc2)C3)CC1 (stereo not given) | 645 |
| O=C1CCCc2nc(N3CCN(c4ccccn4)CC3)nc(Nc3ccccc3)c21 | 735 |
| CCCn1cnc2cc(CNC(=O)Cc3cccc(Cl)c3)ccc21 | 670 |
| CCC(C)(C)NS(=O)(=O)c1cc(-c2nc(C)c(C(=O)N3CCCC3)s2)cs1 | 863 |
| COc1cc2c(cc1OC)CN(C(=O)CCc1sc(C)nc1-c1cccs1)CC2 | 799 |
